According to US20220389061A1, “IMMUNOMODULATORS” (priority 2019, published 2022):
Starred links: 1 amine or outer side, 2 acyl side, 3 side chain; linkers in the order of their positions; H or OH if unused. Positions of bridges follow the written chain, without caps; N, C: chain ends. Non-standard residues stand in square brackets, D forms with d. Residues, ends and D or L forms follow the SMILES beside them. Groups on a side chain read outwards from the residue. *: point of attachment. Trp(1-CH2CO2Me) = COC(=O)Cn1cc(C[C@H](N)C(=O)O)c2ccccc21; Trp(1-CH2COOH) = N[C@@H](Cc1cn(CC(=O)O)c2ccccc12)C(=O)O; Hyp = O=C(O)[C@@H]1C[C@@H](O)CN1; X32 = c1ccc2c(c1)Cc1cc(N*)ccc1-2; X34 = O=C(c1c2ccccc2cc2ccccc12)*; X3 = S=C(Nc1ccc(Oc2ccccc2)cc1)*; X78 = S=C(Nc1c(Cl)cc(Cl)cc1Cl)*; NH(3-MeOPh) = COc1cccc(N*)c1; NMeNle = CCCC[C@H](NC)C(=O)O; X22 = c1ccc(N(c2ccccc2)*)cc1; X85 = S=C(Nc1c(Cl)cccc1Cl)*; X2 = c1ccc(-c2ccccc2N*)cc1; X82 = S=C(Nc1cccc2nsnc12)*; 3Abz = Nc1cccc(C(=O)O)c1; NMeA = CN[C@@H](C)C(=O)O; Dab = NCC[C@H](N)C(=O)O; X39 = CCCCOc1ccc(N*)cc1; X45 = c1ccc2sc(N*)cc2c1; Dap = NC[C@H](N)C(=O)O; X17 = Cc1cc(C)cc(N*)c1; CO = O=C([*:1])[*:2]; Bz = O=C(c1ccccc1)*

Target: T1, PD-1/PD-L1 (Homo sapiens, UniProt Q9NZQ7)
T1 construct: TVMV protease site linker (C); made in house; host or cells: HEK293T cells
T1 sequence (Q9NZQ7 18-239): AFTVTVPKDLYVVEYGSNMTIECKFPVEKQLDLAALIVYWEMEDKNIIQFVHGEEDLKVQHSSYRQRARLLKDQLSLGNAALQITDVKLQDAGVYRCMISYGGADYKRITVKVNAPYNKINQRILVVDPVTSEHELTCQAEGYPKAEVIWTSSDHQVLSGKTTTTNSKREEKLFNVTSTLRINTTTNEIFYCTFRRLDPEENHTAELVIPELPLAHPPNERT
Test: PD-1/PD-L1 Homogenous Time-Resolved Fluorescence (HTRF) binding assay
Settings: not given
Method in brief: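 Compounds preincubated 15 min with PD-L1-His (10 nM final), then PD-1-Ig (20 nM final) added for 15 min in dPBS with 0.1% BSA, 0.05% Tween-20. Detection by Eu-cryptate anti-Ig (1 nM) and APC anti-His (20 nM) HTRF.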

Point of comparison: `CCCC[C@H]1C(=O)N(C)[C@@H](CCCC)C(=O)N[C@@H](CC(C)C)C(=O)N[C@H](C(=O)NCC(N)=O)CSCC(=O)N[C@@H](Cc2ccc(O)cc2)C(=O)N(C)[C@@H](C)C(=O)N[C@@H](CC(N)=O)C(=O)N2CCC[C@H]2C(=O)N[C@@H](CNC(=O)Nc2ccc3c(c2)Cc2ccccc2-3)C(=O)N[C@@H](CC(C)C)C(=O)N2C[C@H](O)C[C@H]2C(=O)N[C@@H](Cc2c[nH]c3ccccc23)C(=O)N[C@@H](CCN)C(=O)N[C@@H](Cc2cn(CC(=O)O)c3ccccc23)C(=O)N1C` [Example 2009] ({CH2CO}-Y[NMeA]NP[Dap]([CO-X32])L[Hyp]W[Dab][Trp(1-CH2COOH)][NMeNle][NMeNle]LCG-NH2; thioether N-14), IC50 3.6 nM. Against it:
- CCCC[C@H]1C(=O)N(C)[C@@H](CCCC)C(=O)N[C@@H](CC(C)C)C(=O)N[C@H](C(=O)NCC(N)=O)CSCC(=O)N[C@@H](Cc2ccc(O)cc2)C(=O)N(C)[C@@H](C)C(=O)N[C@@H](CC(N)=O)C(=O)N2CCC[C@H]2C(=O)N[C@@H](CNC(=O)c2ccccc2)C(=O)N[C@@H](CC(C)C)C(=O)N2C[C@H](O)C[C@H]2C(=O)N[C@@H](Cc2c[nH]c3ccccc23)C(=O)N[C@@H](CCNC(=O)c2ccccc2)C(=O)N[C@@H](Cc2cn(CC(=O)OC)c3ccccc23)C(=O)N1C [Example 1006] ({CH2CO}-Y[NMeA]NP[Dap](Bz)L[Hyp]W[Dab](Bz)[Trp(1-CH2CO2Me)][NMeNle][NMeNle]LCG-NH2; thioether N-14) — 18-fold lower, 0.2 nM

Same assay, conditions: PD-L1-His 10 nM pre-incubated with inhibitor, PD-1-Ig 20 nM; read-out: HTRF IC50

Point of comparison: `CCCC[C@H]1C(=O)N(C)[C@@H](CCCC)C(=O)N[C@@H](CC(C)C)C(=O)N[C@H](C(=O)NCC(N)=O)CSCC(=O)N[C@@H](Cc2ccc(O)cc2)C(=O)N(C)[C@@H](C)C(=O)N[C@@H](CC(N)=O)C(=O)N2CCC[C@H]2C(=O)N[C@@H](CNC(=S)Nc2ccc(Oc3ccccc3)cc2)C(=O)N[C@@H](CC(C)C)C(=O)N2C[C@H](O)C[C@H]2C(=O)N[C@@H](Cc2c[nH]c3ccccc23)C(=O)N[C@@H](CCNC(=S)Nc2ccc(Oc3ccccc3)cc2)C(=O)N[C@@H](Cc2cn(CC(=O)O)c3ccccc23)C(=O)N1C` [Example 1046] ({CH2CO}-Y[NMeA]NP[Dap](X3)L[Hyp]W[Dab](X3)[Trp(1-CH2COOH)][NMeNle][NMeNle]LCG-NH2; thioether N-14), IC50 11 nM. Against it:
- CCCC[C@H]1C(=O)N(C)[C@@H](CCCC)C(=O)N[C@@H](CC(C)C)C(=O)N[C@H](C(=O)NCC(N)=O)CSCC(=O)N[C@@H](Cc2ccc(O)cc2)C(=O)N(C)[C@@H](C)C(=O)N[C@@H](CC(N)=O)C(=O)N2CCC[C@H]2C(=O)N[C@@H](CNC(=S)Nc2c(Cl)cccc2Cl)C(=O)N[C@@H](CC(C)C)C(=O)N2C[C@H](O)C[C@H]2C(=O)N[C@@H](Cc2c[nH]c3ccccc23)C(=O)N[C@@H](CCNC(=S)Nc2c(Cl)cccc2Cl)C(=O)N[C@@H](Cc2cn(CC(=O)O)c3ccccc23)C(=O)N1C [Example 1039] ({CH2CO}-Y[NMeA]NP[Dap](X85)L[Hyp]W[Dab](X85)[Trp(1-CH2COOH)][NMeNle][NMeNle]LCG-NH2; thioether N-14) — 18-fold lower, 0.6 nM
- CCCC[C@H]1C(=O)N(C)[C@@H](CCCC)C(=O)N[C@@H](CC(C)C)C(=O)N[C@H](C(=O)NCC(N)=O)CSCC(=O)N[C@@H](Cc2ccc(O)cc2)C(=O)N(C)[C@@H](C)C(=O)N[C@@H](CC(N)=O)C(=O)N2CCC[C@H]2C(=O)N[C@@H](CNC(=S)Nc2c(Cl)cc(Cl)cc2Cl)C(=O)N[C@@H](CC(C)C)C(=O)N2C[C@H](O)C[C@H]2C(=O)N[C@@H](Cc2c[nH]c3ccccc23)C(=O)N[C@@H](CCNC(=S)Nc2c(Cl)cc(Cl)cc2Cl)C(=O)N[C@@H](Cc2cn(CC(=O)O)c3ccccc23)C(=O)N1C [Example 1077] ({CH2CO}-Y[NMeA]NP[Dap](X78)L[Hyp]W[Dab](X78)[Trp(1-CH2COOH)][NMeNle][NMeNle]LCG-NH2; thioether N-14) — 1.9-fold lower, 5.7 nM
- CCCC[C@H]1C(=O)N(C)[C@@H](CCCC)C(=O)N[C@@H](CC(C)C)C(=O)N[C@H](C(=O)NCC(N)=O)CSCC(=O)N[C@@H](Cc2ccc(O)cc2)C(=O)N(C)[C@@H](C)C(=O)N[C@@H](CC(N)=O)C(=O)N2CCC[C@H]2C(=O)N[C@@H](CNC(=O)c2c3ccccc3cc3ccccc23)C(=O)N[C@@H](CC(C)C)C(=O)N2C[C@H](O)C[C@H]2C(=O)N[C@@H](Cc2c[nH]c3ccccc23)C(=O)N[C@@H](CCN)C(=O)N[C@@H](Cc2cn(CC(=O)O)c3ccccc23)C(=O)N1C [Example 2015] ({CH2CO}-Y[NMeA]NP[Dap](X34)L[Hyp]W[Dab][Trp(1-CH2COOH)][NMeNle][NMeNle]LCG-NH2; thioether N-14) — 3.4-fold lower, 3.2 nM
- CCCC[C@H]1C(=O)N(C)[C@@H](CCCC)C(=O)N[C@@H](CC(C)C)C(=O)N[C@H](C(=O)NCC(N)=O)CSCC(=O)N[C@@H](Cc2ccc(O)cc2)C(=O)N(C)[C@@H](C)C(=O)N[C@@H](CC(N)=O)C(=O)N2CCC[C@H]2C(=O)N[C@@H](CNC(=O)Nc2cc(C)cc(C)c2)C(=O)N[C@@H](CC(C)C)C(=O)N2C[C@H](O)C[C@H]2C(=O)N[C@@H](Cc2c[nH]c3ccccc23)C(=O)N[C@@H](CCNC(=O)Nc2cccc(OC)c2)C(=O)N[C@@H](Cc2cn(CC(=O)O)c3ccccc23)C(=O)N1C [Example 1121] ({CH2CO}-Y[NMeA]NP[Dap]([CO-X17])L[Hyp]W[Dab]([CO-NH(3-MeOPh)])[Trp(1-CH2COOH)][NMeNle][NMeNle]LCG-NH2; thioether N-14) — within 1.5-fold, 14 nM
- CCCC[C@H]1C(=O)N(C)[C@@H](CCCC)C(=O)N[C@@H](CC(C)C)C(=O)N[C@H](C(=O)NCC(N)=O)CSCC(=O)N[C@@H](Cc2ccc(O)cc2)C(=O)N(C)[C@@H](C)C(=O)N[C@@H](CC(N)=O)C(=O)N2CCC[C@H]2C(=O)N[C@@H](CNC(=S)Nc2cccc3nsnc23)C(=O)N[C@@H](CC(C)C)C(=O)N2C[C@H](O)C[C@H]2C(=O)N[C@@H](Cc2c[nH]c3ccccc23)C(=O)N[C@@H](CCN)C(=O)N[C@@H](Cc2cn(CC(=O)O)c3ccccc23)C(=O)N1C [Example 3016] ({CH2CO}-Y[NMeA]NP[Dap](X82)L[Hyp]W[Dab][Trp(1-CH2COOH)][NMeNle][NMeNle]LCG-NH2; thioether N-14) — 18-fold lower, 0.6 nM
- CCCC[C@H]1C(=O)N(C)[C@@H](CCCC)C(=O)N[C@@H](CC(C)C)C(=O)N[C@H](C(=O)NCC(N)=O)CSCC(=O)N[C@@H](Cc2ccc(O)cc2)C(=O)N(C)[C@@H](C)C(=O)N[C@@H](CC(N)=O)C(=O)N2CCC[C@H]2C(=O)N[C@@H](CNC(=O)Nc2cc3ccccc3s2)C(=O)N[C@@H](CC(C)C)C(=O)N2C[C@H](O)C[C@H]2C(=O)N[C@@H](Cc2c[nH]c3ccccc23)C(=O)N[C@@H](CCN)C(=O)N[C@@H](Cc2cn(CC(=O)O)c3ccccc23)C(=O)N1C [Example 3032] ({CH2CO}-Y[NMeA]NP[Dap]([CO-X45])L[Hyp]W[Dab][Trp(1-CH2COOH)][NMeNle][NMeNle]LCG-NH2; thioether N-14) — within 1.5-fold, 9.2 nM
- CCCC[C@H]1C(=O)N(C)[C@@H](CCCC)C(=O)N[C@@H](CC(C)C)C(=O)N[C@H](C(=O)NCC(N)=O)CSCC(=O)N[C@@H](Cc2ccc(O)cc2)C(=O)N(C)[C@@H](C)C(=O)N[C@@H](CC(N)=O)C(=O)N2CCC[C@H]2C(=O)N[C@@H](CNC(=O)N(c2ccccc2)c2ccccc2)C(=O)N[C@@H](CC(C)C)C(=O)N2C[C@H](O)C[C@H]2C(=O)N[C@@H](Cc2c[nH]c3ccccc23)C(=O)N[C@@H](CCNC(=O)N(c2ccccc2)c2ccccc2)C(=O)N[C@@H](Cc2cn(CC(=O)OC)c3ccccc23)C(=O)N1C [Example 1004] ({CH2CO}-Y[NMeA]NP[Dap]([CO-X22])L[Hyp]W[Dab]([CO-X22])[Trp(1-CH2CO2Me)][NMeNle][NMeNle]LCG-NH2; thioether N-14) — 2.1-fold higher, 23 nM
- CCCCOc1ccc(NC(=O)NC[C@@H]2NC(=O)[C@@H]3CCCN3C(=O)[C@H](CC(N)=O)NC(=O)[C@H](C)N(C)C(=O)[C@H](Cc3ccc(O)cc3)NC(=O)CSC[C@@H](C(=O)NCC(N)=O)NC(=O)[C@H](CC(C)C)NC(=O)[C@H](CCCC)N(C)C(=O)[C@H](CCCC)N(C)C(=O)[C@H](Cc3cn(CC(=O)O)c4ccccc34)NC(=O)[C@H](CCN)NC(=O)[C@H](Cc3c[nH]c4ccccc34)NC(=O)[C@@H]3C[C@@H](O)CN3C(=O)[C@H](CC(C)C)NC2=O)cc1 [Example 1139] ({CH2CO}-Y[NMeA]NP[Dap]([CO-X39])L[Hyp]W[Dab][Trp(1-CH2COOH)][NMeNle][NMeNle]LCG-NH2; thioether N-14) — within 1.5-fold, 13 nM
- CCCC[C@H]1C(=O)N(C)[C@@H](CCCC)C(=O)N[C@@H](CC(C)C)C(=O)N[C@H](C(=O)NCC(N)=O)CSCC(=O)N[C@@H](Cc2ccc(O)cc2)C(=O)N(C)[C@@H](C)C(=O)N[C@@H](CC(N)=O)C(=O)N2CCC[C@H]2C(=O)N[C@@H](CNC(=O)Nc2cccc(C(=O)OCC)c2)C(=O)N[C@@H](CC(C)C)C(=O)N2C[C@H](O)C[C@H]2C(=O)N[C@@H](Cc2c[nH]c3ccccc23)C(=O)N[C@@H](CCN)C(=O)N[C@@H](Cc2cn(CC(=O)O)c3ccccc23)C(=O)N1C [Example 1078] ({CH2CO}-Y[NMeA]NP[Dap]([CO-3Abz-OEt])L[Hyp]W[Dab][Trp(1-CH2COOH)][NMeNle][NMeNle]LCG-NH2; thioether N-14) — 2.7-fold lower, 4.1 nM

Same assay, conditions: read-out: HTRF IC50; PD-L1-His 10 nM pre-incubated with inhibitor, PD-1-Ig 20 nM

`CCCC[C@H]1C(=O)N(C)[C@@H](CCCC)C(=O)N[C@@H](CC(C)C)C(=O)N[C@H](C(=O)NCC(N)=O)CSCC(=O)N[C@@H](Cc2ccc(O)cc2)C(=O)N(C)[C@@H](C)C(=O)N[C@@H](CC(N)=O)C(=O)N2CCC[C@H]2C(=O)N[C@@H](CNC(=O)Nc2ccccc2-c2ccccc2)C(=O)N[C@@H](CC(C)C)C(=O)N2C[C@H](O)C[C@H]2C(=O)N[C@@H](Cc2c[nH]c3ccccc23)C(=O)N[C@@H](CCNC(=O)Nc2ccccc2-c2ccccc2)C(=O)N[C@@H](Cc2cn(CC(=O)O)c3ccccc23)C(=O)N1C` [Example 1126] ({CH2CO}-Y[NMeA]NP[Dap]([CO-X2])L[Hyp]W[Dab]([CO-X2])[Trp(1-CH2COOH)][NMeNle][NMeNle]LCG-NH2; thioether N-14) showed an IC50 of 1 nM.
